Each structure is given as a SMILES string.

The test system of test [1] is Mycobacterium tuberculosis (H37Rv). Put plainly: Growth in liquid media in presence of test compound. The class given is cell-based.
Test [2] deals with E. faecalis. The description is as above. In kind it is cell-based. How it is done:
The strains were grown at 37° C. and after suitable cell concentrations had been reached, 100 μL of each cell suspension was added to a tube with growth media and test compound. Cultivation of the bacteria was then carried out in the presence of each test compound at 37° C. and the tubes examined for visible growth. The compounds were tested at concentrations of either 500 mg/l, 50 mg/l or 5 mg/l. This assay was repeated twice.
Some compounds were only tested against some test organisms. It will be appreciated that the charge of these molecules will depend on the environment, some of the Examples are shown with a suitable counter ion, some without.

Test [3] deals with Staphylococcus aureus (ATCC 25923). Described as above. In kind it is cell-based.
The subject of test [4] is Escherichia coli (ATCC 25922). The test is described as above. In kind it is cell-based.
For test [5], the system named is Pseudomonas aeruginosa (ATCC 27853). Described as above. The class given is cell-based.
Test [6] relates to Candida albicans MYA576 (resistant to nystatin). Put plainly: Filter paper disc antifungal assay on agar plates. The class given is cell-based. The following applies: 5 mm disc, 37° C. 24 hours. How it is done:
(§1) Compound 22 (the chloride salt) of table 1 was dissolved and the solution applied to a filter paper disc of diameter 5 mm. The filter paper discs were placed on plates containing the following strains of Candida albicans:
MYA576 (resistant to nystatin).
(§2) The compound was applied at concentrations of 0.5, 1, 5, 10, 25 and 50 μg/ml. Nystatin and fluconazole at the same concentrations were applied in the same manner. […] All strains were tested at least three times.
(§3) Clearly, the higher the number, the greater the antifungal activity.

The subject of test [7] is Candida albicans ATCC90028 (wild type). Put plainly: Filter paper disc antifungal assay on agar plates. In kind it is cell-based. The following applies: 5 mm disc, 37° C. 24 hours. On the procedure:
as §1
ATCC90028 (“wild type”, i.e. not resistant to nystatin or fluconazole)
as §2, §3

For test [8], the system named is Candida albicans. Put plainly: Filter paper disc antifungal assay, Candida albicans strains overall. The class given is cell-based. How it is done: as §1, §2, §3
Test [9] relates to M. tuberculosis. Put plainly: Growth on solid media in presence of test compound. In kind it is cell-based, Mycobacterium tuberculosis. As to conditions: result on solid media.
In test [10] the test system is Streptococcus pyogenes (ATCC 19615). Put plainly: Growth in liquid media in presence of test compound. In kind it is cell-based.
The test system of test [11] is Candida albicans (ATCC 90028). The description is as above. The class given is cell-based.
Test [12] deals with Candida albicans ATCC38247 (resistant to fluconazole). Put plainly: Filter paper disc antifungal assay on agar plates. As to conditions: 5 mm disc, 37° C. 24 hours. In kind it is cell-based. On the procedure: as §1
ATCC38247 (resistant to fluconazole)
as §2, §3

As to `NCCCCC(N)C(=O)NC(CB(O)O)Cc1ccccc1` (stereo not shown) [Compound 34], the “Growth in the presence of test compound, M. tuberculosis” value (“Growth … M. tuberculosis” below) in test [1] (5 mg/L) is listed as “+”; in test [1] (50 mg/L) it was “−”; in test [1] (500 mg/L), “−”. The “Growth in the presence of test compound, E. faecalis” value in test [2] (5 mg/L) is on record as “+”; in [2] (50 mg/L) it was “+”; in test [2] (500 mg/L), “−”. The results for the “Growth in the presence of test compound, S. aureus” value (“Growth in the presence … S. aureus” below) in [3] (5 mg/L), in [3] (50 mg/L) and in [3] (500 mg/L) were “+”, “+” and “−”, respectively. Moreover, the “Growth in the presence of test compound, E. coli” value (from here on “Growth in the presence … E. coli”) in [4] (5 mg/L) was “+”; in test [4] (50 mg/L), “+”; in test [4] (500 mg/L) it was “−”. Also, the “Growth in the presence of test compound, P. aeruginosa” value (“Growth … P. aeruginosa” for short) in test [5] (5 mg/L) was “+”; in test [5] (50 mg/L), “+”; in test [5] (500 mg/L) it was “−”.
For `C[C@@H]1[C@H](O)[C@@H](C)/C=C/C=C/CC/C=C/C=C/C=C/C=C/C(O[C@H]2O[C@H](C)[C@@H](O)[C@H](N)[C@@H]2O)CC2O[C@](O)(CC(O)C(O)CCC(O)CC(O)CC(O)CC(=O)O[C@H]1C)CC(O)C2C(=O)O` (stereo partly shown) [Nystatin, reference compound], the “diameter of the area which did not show any Candida growth” value in [6] (MYA576, 0.5 μg/ml) was found to be 5 millimeters; in test [6] (MYA576, 1 μg/ml), 5 millimeters; in test [6] (MYA576, 5 μg/ml), 5 millimeters; in [6] (MYA576, 10 μg/ml), 6.17 millimeters; in [6] (MYA576, 25 μg/ml), 7.33 millimeters; in [6] (MYA576, 50 μg/ml), 9 millimeters. Moreover, the “diameter of the area which did not show any Candida growth” value in test [7] (ATCC90028, 0.5 μg/ml) is listed as 6.25 millimeters; in test [7] (ATCC90028, 1 μg/ml), 7.25 millimeters; in test [7] (ATCC90028, 5 μg/ml), 9.25 millimeters; in test [7] (ATCC90028, 10 μg/ml), 14.75 millimeters; in test [7] (ATCC90028, 25 μg/ml), 19.25 millimeters; in test [7] (ATCC90028, 50 μg/ml), 20.25 millimeters.
`CC1(C)C2CC3OB(CC(Cc4ccccc4)NC(=O)C(N)CCCCN)OC3(C)C1C2` (stereo not shown) [Compound 1]: the “Growth … M. tuberculosis” value in test [1] (5 mg/L), in test [1] (50 mg/L) and in [1] (500 mg/L) was “−” in each case. Also, the “Growth in the presence of test compound, E. faecalis” value in test [2] (5 mg/L) is listed as “+”; in test [2] (50 mg/L), “+”; in test [2] (500 mg/L) it was “−”. The “Growth in the presence … S. aureus” value in test [3] (5 mg/L) is recorded as “+”; in test [3] (50 mg/L) it was “+”; in [3] (500 mg/L), “−”. The “Growth in the presence … E. coli” value in test [4] (5 mg/L) was “+”; in test [4] (50 mg/L) it was “+”; in [4] (500 mg/L), “−”. For the same compound, the “Growth … P. aeruginosa” value is “+” in test [5] (5 mg/L), “+” in test [5] (50 mg/L) and “±” in test [5] (500 mg/L).
Consider `CC1(C)C2CC3OB([C@@H](CNC(=O)[C@@H](N)Cc4ccccc4)Cc4ccc5ccccc5c4)O[C@]3(C)C1C2.Cl` (stereo partly drawn) [Compound 22, α-naphthyl-β-amino-(−)-pinanedioleboronate-N-], for which the “diameter of the area which did not show any Candida growth” value stood at 5.33 millimeters in [6] (MYA576, 0.5 μg/ml); 6.67 millimeters in test [6] (MYA576, 1 μg/ml); 10.67 millimeters in [6] (MYA576, 5 μg/ml); 12.67 millimeters in [6] (MYA576, 10 μg/ml); 14.33 millimeters in test [6] (MYA576, 25 μg/ml); 15.67 millimeters in [6] (MYA576, 50 μg/ml). For the same compound, the “diameter of the area which did not show any Candida growth” value in test [7] (ATCC90028, 0.5 μg/ml) was found to be 5 millimeters; in test [7] (ATCC90028, 1 μg/ml), 6 millimeters; in test [7] (ATCC90028, 5 μg/ml) it was 6.875 millimeters; in [7] (ATCC90028, 10 μg/ml), 11.75 millimeters; in test [7] (ATCC90028, 25 μg/ml) it was 15.25 millimeters; in [7] (ATCC90028, 50 μg/ml), 17 millimeters. The “diameter of the area which did not show any Candida growth” value was 5 millimeters in test [12] (ATCC38247, 0.5 μg/ml); 5.21 millimeters in test [12] (ATCC38247, 1 μg/ml); 7.43 millimeters in [12] (ATCC38247, 5 μg/ml); 12.86 millimeters in test [12] (ATCC38247, 10 μg/ml); 17.29 millimeters in test [12] (ATCC38247, 25 μg/ml); 19.14 millimeters in test [12] (ATCC38247, 50 μg/ml). Also, the “lowest concentration at which activity was shown” value in [8] came out at 1 µg/mL. For the same compound, the “Growth … M. tuberculosis” value in test [9] (5 mg/L) was “+”; in [9] (50 mg/L), “+”; in test [9] (500 mg/L) it was “−”. For the same compound, the “Growth in the presence of test compound, S. pyogenes” value is “+” in [10] (5 mg/L), “−” in [10] (50 mg/L) and “+” in [10] (500 mg/L). Further, the figures for the “Growth in the presence … S. aureus” value in test [3] (5 mg/L), in test [3] (50 mg/L) and in [3] (500 mg/L) were “+”, “±” and “+”, respectively. The “Growth in the presence … E. coli” value in test [4] (5 mg/L), in test [4] (50 mg/L) and in [4] (500 mg/L) was “+” each time. In addition, the “Growth … P. aeruginosa” value is on record as “+” in test [5] (5 mg/L), “±” in test [5] (50 mg/L) and “+” in [5] (500 mg/L). Moreover, the figures for the “Growth in the presence of test compound, C. albicans” value in test [11] (5 mg/L), in test [11] (50 mg/L) and in test [11] (500 mg/L) were “+”, “−” and “±”, respectively.
